Our source for the melting point values is a melting point compilation (Tetko et al.; mined from patent text by program, amines drawn as free bases though some values may be those of a salt).

Molecules are shown by their SMILES. Residues, ends and D or L forms follow the SMILES beside them. *: point of attachment. Piv = CC(C)(C)C(=O)*

In general, melting point refers to the temperature of the solid-liquid transition. With `OC(Cc1nnccc1-c1c(-c2ccccc2)nn2ccccc12)C(Cl)(Cl)Cl` (centres undefined), the melting point lay in the range of 206 to 207 °C.

Turning to `CCOc1ccc2ccccc2c1-c1c(OCC)ccc2ccccc12`, the melting point turned out to be 92 °C.

In turn, `Cc1cc2c(-c3cccnc3)c(CC(=O)O)c(=O)oc2cc1Cl` returned a melting point of 279 to 281 °C.

`N#Cc1ccc(-c2ccc(-c3nc4cc(C#N)ccc4[nH]3)cc2)c(OCc2ccccc2)c1` gave a melting point of 205 to 208 °C.

For the compound `N#Cc1cc(C(F)(F)F)ccc1Oc1cccc(C(=O)O)c1`, the melting point lay within 224 to 226 °C.

Compound `N#CCC1CC(=O)N(c2ccc(Cl)cc2)C1` (centres undefined) displayed a melting point of 92 to 94 °C.

In turn, `O=c1c2ccccc2nc(-n2ccnc2)n1-c1ccccc1` showed a melting point of 163 to 165 °C.

For `CN1CCC(O)(c2ccc(F)cc2F)C1` (centres undefined), the melting point fell in the range of 117 to 119 °C.

On to `CCCn1nc(C2CC2)c(C(=O)OCC)c1Cc1ccc(-c2ccccc2-c2nnn(C(c3ccccc3)(c3ccccc3)c3ccccc3)n2)cc1`, for which the melting point was in the range of 154 to 159 °C.

The compound `CCc1cc(OCc2nc3ccccc3o2)c(=O)[nH]c1C` yielded a melting point of 198 to 200 °C.

The compound `[O-][N+](=Cc1ccc(OCc2ccccc2)cc1)C1CCCC1` showed a melting point of 115 °C.

With `Cn1c(=O)c2cc(C(=O)O)cn2c2ccccc21`, the melting point lay within 330 to 333 °C.

`COc1ccc(-c2cnn3c(N)c(-c4ccc(F)cc4)c(C)nc23)cc1`: the melting point is 243 to 244 °C.

In turn, `CN(C)C(=O)c1nc(-c2cccc3ccccc23)no1` displayed a melting point of 109 to 110 °C.

On to `CC(C(=O)N(C)C)n1nc(-c2ccccc2)cc1-c1ccccc1` (centres undefined), for which the melting point was in the range of 133 to 135 °C.

`Cc1cccc(Nc2nc(-c3ccc(-c4ccccc4)cc3)cs2)n1` gave a melting point of 218 to 222 °C.

The compound `O=C1CC2Cc3ccccc3N2CCN1` (centres undefined) registered a melting point of 186 to 188 °C.

In turn, `Oc1cc(Cl)c(-c2nnn[nH]2)cc1Oc1ccc(Cl)cc1Cl` had a melting point of 174 to 180 °C.

`CCCN(c1ccncc1Cl)n1cc(C)c2ccccc21` registered a melting point of 68 to 70 °C.

In the case of `CCOC(=O)CCc1ccc2c(c1)nc(N)c1nc(CC)n(CC3CCOCC3)c12`, the melting point fell in the range of 172 to 173 °C.

Compound `CC(=O)Nc1ccc(Sc2c([N+](=O)[O-])cc(C(=O)O)cc2S(N)(=O)=O)cc1` displayed a melting point of 168 °C.

Compound `N#Cc1ccc(S(=O)(=O)c2ccc(O)cn2)cc1` came in with a melting point of 225 to 226 °C.

The compound `CCCNC(=O)C(CCC(=O)NCCCOC(C)=O)NC(=O)OCc1ccccc1` (centres undefined) displayed a melting point of 98 to 102 °C.

`CC(Cl)C(=O)NCCO` (centres undefined) displayed a melting point of 64 °C.

As for `CN1CCC(OC(c2cccc(SCC3=NCCN3)c2)c2nc3ccccc3[nH]2)CC1` (centres undefined), the melting point was found to be 62 °C.

As to `Cc1ncc([N+](=O)[O-])n1CCN1C(=O)CCC1=O`, the melting point was 147 to 148 °C.

In the case of `O=C(Nc1ncccn1)Nc1cccc2c1C1CCCCN1C2=O` (centres undefined), the melting point worked out at 232 °C.

Regarding `CC(C)(C)c1ccc(-c2nc(COCCc3cccc(NS(=O)(=O)C(F)(F)F)c3)cs2)cc1`, the melting point lay within 110 to 112 °C.

Compound `N#Cc1cccc(CCC(=O)c2c(O)c3cccnc3n(-c3ccccc3)c2=O)c1` showed a melting point of 219 to 220 °C.

Regarding `CN(C)S(=O)(=O)c1ccccc1S(=O)(=O)NC(=O)Nc1nc(F)cc(OC(F)(F)F)n1`, the melting point is 167 to 169 °C.

In turn, `FC(F)(F)c1cc(C(F)(F)F)c2[nH]c(N3CCN(c4ncccc4Br)CC3)nc2c1` showed a melting point of 166 °C.

Compound `O=C(O)CCc1cn(Cc2ccc(OCc3ccc(-c4ccccc4)cn3)cc2)nc1-c1ccccc1` displayed a melting point of 149 to 150 °C.

For `COC(=O)[C@@H]1CCCN1S(=O)(=O)c1ccc(Cl)c(COc2cccc3c(C)cc(C)nc23)c1OC`, the melting point was in the range of 66 to 70 °C.

In the case of `Nc1nc(Cl)nc2c1ncn2C1OC(COC2CC2)C(O)C1O` (centres undefined), the melting point is 122 to 124 °C.

In turn, `Cc1cc2c(C=O)c3ccccc3c(C=O)c2cc1C` gave a melting point of 203 to 204 °C.

In turn, `CCN(CC)CCNC(=O)c1cc(Cl)c(N)cc1OCCCS(C)=O` (centres undefined) came in with a melting point of 116 to 117 °C.

For the compound `CCOC(=O)COc1cc2c(c(Cl)c1Cl)C(=O)C(CC#C[Si](C)(C)C)(c1ccc(Cl)cc1)C2` (centres undefined), the melting point is 103 to 104 °C.

Take `CCn1nc(O)nc1SC`: the melting point is 83 to 87 °C.

On to `Cc1oc(-c2ccco2)nc1COc1ccc(COc2nn(-c3ccccc3)cc2CO)cc1`, for which the melting point lay within 113 to 114 °C.

The compound `O=C(Nc1ccc(C2CCN(Cc3ccccc3)CC2)cc1)c1ccccc1-c1ccc(C(F)(F)F)cc1` returned a melting point of 134 °C.

In turn, `O=C1c2c(OCc3ccccc3)c(OCc3ccccc3)cc(OCc3ccccc3)c2-c2nn(CCNCCO)c3ccc(Cl)c1c23` showed a melting point of 164 to 167 °C.

Regarding `Cc1ncc2n1-c1ccc(Cl)cc1C(c1ccccc1F)NC2` (centres undefined), the melting point lay within 200 to 203 °C.

`Cc1nc2cc(C(F)(F)F)ccc2n1NC(=O)c1ccc(Cl)c(S(N)(=O)=O)c1` showed a melting point of 193 to 195 °C.

As to `COc1ccc2c(c1)C(=O)N(c1ccc3c(ccn3C(C)C)c1)C2`, the melting point lay within 144 to 148 °C.

`CC(C)n1ncc2c(N(C)N)ncnc21` showed a melting point of 105 to 108 °C.

In turn, `CCSc1nnc(CO)n1Cc1ccc(N)cc1` came in with a melting point of 145 to 147 °C.

Compound `O=c1[nH]c(=O)n(C2CC(F)C(CO)O2)cc1Cl` (centres undefined) registered a melting point of 183 to 184 °C.

In the case of `Cc1ccsc1NC(=O)NCC(=O)N(CC(=O)N(C)c1ccccc1)c1ccccc1`, the melting point was 172 °C.

In the case of `COc1cc2c(c(Cl)c1Cl)C(=O)C(CCOC(C)=O)=C2`, the melting point was in the range of 134 to 136 °C.

As to `CCCCOc1ccc(-c2nc(-c3ccccc3Cl)nn2C)c(Cl)c1`, the melting point lay in the range of 60 to 62 °C.

On to `CC(C)=CCOc1ccc(C(=O)C=Cc2c(Cl)cccc2Cl)c(O)c1`, for which the melting point fell in the range of 101 to 102 °C.

`CC(O)CCCCCCCC(O)c1ccc(OCc2ccccc2)c(OCc2ccccc2)c1` (centres undefined) yielded a melting point of 66 °C.

Regarding `C=CCc1c(O)ccc(C(=O)OC)c1O`, the melting point was 65 to 66 °C.

In the case of `CCNC(=O)[C@@H]1CCCN1C(=O)[C@H](C)NC(=O)C(C)(C)C` (Piv-Ala-Pro-NHEt), the melting point lay in the range of 94 to 96 °C.

For `COC1(c2csc(S(=O)(=O)c3ccc(/C(C)=N/O)cc3)c2)CCOCC1`, the melting point lay within 141 to 142 °C.

In the case of `CC1(C)OC(=S)Nc2ccc(-c3cc(F)cc(F)c3)cc21`, the melting point is 224 to 225 °C.

As to `COC(=O)c1cccc(N)c1S`, the melting point lay in the range of 174 to 175 °C.

The compound `CCOC(=O)C1=C(C)Nc2ccccc2N(C)C1c1cccc([N+](=O)[O-])c1` (centres undefined) came in with a melting point of 113 to 116 °C.

On to `COc1cccc(-c2cn(C)cc(-c3cccc(C(F)(F)F)c3)c2=O)c1`, for which the melting point was 113 to 115 °C.

For the compound `CN1C(=NC(=O)c2ccc(F)cc2)C(C(F)(F)F)(C(F)(F)F)NC1c1ccc(F)cc1` (centres undefined), the melting point was 132 to 133 °C.

`COc1cc2oc(=O)c3c(c2cc1OC)CCN(Cc1ccccc1)C3` yielded a melting point of 189 to 191 °C.

As to `Cc1sc(-c2ccccc2)nc1CCC(=O)c1ccc(CC2SC(=O)NC2=O)s1` (centres undefined), the melting point was 164 to 166 °C.

As to `COc1cc(OC)c(NC(=O)CC(C#N)c2ccccc2)c(OC)c1` (centres undefined), the melting point lay within 157 to 160 °C.

`CCc1cc2c(O)c(C(=O)OCC(C)C)cnc2s1` displayed a melting point of 156 to 158 °C.

Take `O=C1NC(=O)C(c2cn3c4c(cccc24)CCC3)C1c1cccc(O)c1` (centres undefined): the melting point was 108 to 110 °C.

Turning to `CN(C(=O)OC(C)(C)C)c1ccc(-c2ncn(-c3ccc(OC(F)(F)F)cc3)n2)cc1`, the melting point lay in the range of 125 to 128 °C.

Take `COC(=O)/C=C/c1nc(C=O)ccc1OC`: the melting point was 132 to 134 °C.

Turning to `O=Cc1c(F)cccc1NCc1ccccc1`, the melting point lay within 72.5 to 74.5 °C.

Turning to `COc1nc(C)c(N2CCCn3c2nc2c(OC)ccc(C(OC(F)F)C(F)(F)F)c23)c(C)n1` (centres undefined), the melting point fell in the range of 201 to 203 °C.

In turn, `ON=C(Cc1ccccc1)c1ccccn1` showed a melting point of 151 to 153 °C.

In the case of `COC(=O)COc1ccc(NC(=O)COCc2ccccc2)cc1`, the melting point fell in the range of 76 to 77.5 °C.

For `CC/C(=C\Cn1oc(=O)[nH]c1=O)c1cccc(OCc2nc(-c3ccc(C(F)(F)F)cc3)oc2C)c1`, the melting point was in the range of 66 to 67 °C.

For the compound `CCOC(=O)Cc1nn(CC(=O)Nc2cc(C(F)(F)F)ccc2Br)c(=O)c2ccccc12`, the melting point is 160 °C.

With `O=C(NCC1CCCCC1)c1c(Cl)ccc2nc(N3CCC[C@@H]3C(=O)O)ccc12`, the melting point was in the range of 157 to 160 °C.

`c1cc2c3c(c1)Cc1c(ccc4c1OCO4)C3CNC2` (centres undefined) came in with a melting point of 175 to 176 °C.

For `N#CC(Cc1c[nH]cn1)(c1ccccc1)c1ccc(Cl)cc1` (centres undefined), the melting point lay within 135 to 136 °C.

Compound `CCOC(=O)c1c(Cl)nn(C)c1S(N)(=O)=O` had a melting point of 121 to 123 °C.

In turn, `Cc1oc(-c2ccccc2)nc1CCOc1ccc(C[C@H](NC(=O)C=Cc2ccccc2C(F)(F)F)C(=O)O)cc1` displayed a melting point of 170 to 172 °C.

The compound `CCNC(=S)C1=CC(C)(C)Oc2ccc(C#N)cc21` came in with a melting point of 151 to 153 °C.

The compound `COC(=O)CSCc1cccc(-c2nc(=O)c3ccccc3s2)n1` gave a melting point of 108 to 110 °C.

`CC(=O)OC1CSC(Oc2cccc(-c3ccsc3)c2)C(OC(C)=O)C1OC(C)=O` (centres undefined): the melting point is 111 °C.

Regarding `COc1cccc(F)c1CCl`, the melting point was 87 to 89 °C.

For the compound `CC1=Nc2c(C)nn(C)c2C2=NC(C)C(C)N12` (centres undefined), the melting point was found to be 280 °C.

`CC1(C)C=Cc2c(ccc3ncccc23)O1` showed a melting point of 104 to 107 °C.

The compound `CN(C)c1ccc(-c2cccc3c2C2(COc4cc5c(cc42)CCO5)C(=O)N3Cc2ccc(C(F)(F)F)o2)cn1` (centres undefined) gave a melting point of 223 to 225 °C.

In the case of `Cc1c(NC(=O)C(C)(C)C)cccc1C(F)(F)F`, the melting point was found to be 122 °C.

In turn, `CC1=CC(OC(=O)c2ccccc2)C(O)C(C)(C)CC1=O` (centres undefined) returned a melting point of 91 to 92 °C.

Consider `COc1ccc2c(CC3CCN(CCc4c(C)sc5c4CCN(C(C)=O)C5)CC3)noc2c1OC`, for which the melting point was 197 to 200 °C.

`COc1ccc(/C=C/C=C/C(=O)O)cc1` had a melting point of 134 to 135 °C.
